Source: US20110256115A1, “HYDROSOLUBLE [6)O-ALPHA-D-GLCP-(1->]N-6-O-BETA-D-GLCP-(1->-PHENOLIC DERIVATIVES WITH DERMOCOSMETIC, NUTRITIONAL AND THERAPEUTIC APPLICATIONS, AND COMPOSITIONS CONTAINING SAID WATER SOLUBLE COMPOUNDS” (Libragen, priority 2008, published 2011)
Where “and” joins values, the source holds several entries; their conditions need not be identical. Equal values may be shown once.

Experiment: Compared solubility in water
Format: physicochemical
Conditions: for % of solubility increase = (A − B)/B × 100: versus corresponding O-β-D-Glcp-(1→-phenolic compound); for A = solubility in water of [6)-O-α-D-Glcp-(1→]1-6-O-β-D-Glcp-(1→-phenolic compound / B = solubility in water of O-β-D-Glcp-(1→-phenolic compound) / solubility: pH 4.0 to 5.0, no buffer added, 25° C.; for A = solubility in water of [6)-O-α-D-Glcp-(1→]1-6-O-β-D-Glcp-(1→-phenolic compound: minimal solubility from concentrated syrup; for B = solubility in water of O-β-D-Glcp-(1→-phenolic compound) / solubility: water saturated solution; for solubility: thermodynamic from solid, read-out: B = solubility in water of O-β-D-Glcp-(1→-phenolic compound)
Description: The phenolic compounds derivatives of the present invention have an improved solubility in water of at least 50% to 5000% as compared to the corresponding 0-β-D-Glcp-(14)-phenolic compound in the same physiological conditions, more preferably at least 50%, 100%, 200%, 400%, 800%, 1000%, 2000%, 3000%, 4000% or 5000%. Solubility of a phenolic compound derivative can be estimated by preparing a saturated water solution of said phenolic compound derivative. Excess solid form of phenolic compound derivative is eliminated by high speed centrifugation and concentration of compound A in the supernatant is estimated by HPLC using appropriate references (see above §‘Prepation of derivative’ for HPLC conditions example). Solubility difference is calculated with formula: […]
For this purpose, these [6)-O-α-D-Glcp-(1→]n-6-O-β-D-Glcp-(1→-phenolic derivatives have been prepared as described in example 1, and concentrated as described in EP2007/055815. The resulting concentrated syrup obtained after purification of these [6)-O-α-D-Glcp-(1→]1-6-O-β-D-Glcp-(1→-phenolic derivatives has been diluted and analyzed by HPLC to estimate the content of soluble [6)-O-α-D-Glcp-(1→]1-6-O-β-D-Glcp-(1→-phenolic derivatives.
In parallel, an excess amount of each corresponding β-D-Glcp-(1→-phenolic derivatives has been diluted in water to enable the preparation of water saturated solutions of these compounds. After high speed centrifugation to remove the excess of solid material, the supernatant of these saturated solutions has been analyzed by HPLC to estimate the content of soluble O-β-D-Glcp-(1→-phenolic derivatives.
Nota: One should notice that solubility of the [6)-O-α-D-Glcp-(1→]1-6-O-(3-D-Glcp-(1→-phenolic derivatives is considered as a minimal solubility as concentration of the initial syrups have not been tested.

| Compound | % of solubility increase = (A − B)/B × 100 (In g/L) | % of solubility increase = (A − B)/B × 100 (In mM) | A = solubility in water of [6)-O-α-D-Glcp-(1→]1-6-O-β-D-Glcp-(1→-phenolic compound | solubility | B = solubility in water of O-β-D-Glcp-(1→-phenolic compound) |
| --- | --- | --- | --- | --- | --- |
| O=C(CCc1ccc(O)cc1)c1c(O)cc(O)cc1O[C@@H]1O[C@H](CO[C@H]2O[C@H](CO)[C@@H](O)[C@H](O)[C@H]2O)[C@@H](O)[C@H](O)[C@H]1O [[6)-O-α-D-Glcp-(1→]1-6-O^2′-β-D-Glcp-(1→-phloretin] | Higher than 4750% | Higher than 3450% | > 53.3 g/L and > 89.1 mM |  |  |
| COc1ccc(/C=C/c2cc(O)cc(O[C@@H]3O[C@H](CO)[C@@H](O)[C@H](O)[C@H]3O)c2)cc1 [Deoxyrhapontin, 3,5-dihydroxy-4′-methoxystilbene-3-O-β-D-glucopyranoside, reference compound] |  |  |  |  | 0.3 g/L and 0.7 mM |
| O=c1ccc2cc(O[C@@H]3O[C@H](CO[C@H]4O[C@H](CO)[C@@H](O)[C@H](O)[C@H]4O)[C@@H](O)[C@H](O)[C@H]3O)c(O)cc2o1 [[6)-O-α-D-Glcp-(1→]1-6-O^6-β-D-Glcp-(1→-esculetin] | Higher than 850% | Higher than 550% | > 12.5 g/L and > 24.9 mM |  |  |
| COc1ccc(C=Cc2cc(O)cc(O[C@@H]3O[C@H](CO)[C@@H](O)[C@H](O)[C@H]3O)c2)cc1O [Rhapontin, 4′-methoxy-3,3′,5-stilbenetriol-3-O-β-D-glucopyranoside, reference compound] |  |  |  | 300 µg/mL and 700 µM |  |
| O=C(CCc1ccc(O)cc1)c1c(O)cc(O)cc1O[C@@H]1O[C@H](CO)[C@@H](O)[C@H](O)[C@H]1O [Phloridzin, Phloretin-2′-O-β-D-glucopyranoside, reference compound] |  |  |  | 1100 µg/mL and 2500 µM |  |
| OC[C@H]1O[C@@H](Oc2cc(O)cc(C=Cc3ccc(O)cc3)c2)[C@H](O)[C@@H](O)[C@@H]1O [O-β-D-Glcp-(1→-resveratrol, Resveratrol-3-O-β-D-glucopyranoside, reference compound] |  |  |  | 1200 µg/mL and 3100 µM |  |
| Esculetin-6-O-β-D-glucopyranoside [Esculin, reference compound] |  |  |  |  | 1.3 g/L and 3.8 mM |

Now from value to compound, other results behind:

| % of solubility increase = (A − B)/B × 100 (In g/L) | % of solubility increase = (A − B)/B × 100 (In mM) | A = solubility in water of [6)-O-α-D-Glcp-(1→]1-6-O-β-D-Glcp-(1→-phenolic compound | solubility | Compound | B = solubility in water of O-β-D-Glcp-(1→-phenolic compound) |
| --- | --- | --- | --- | --- | --- |
| Higher than 5400% | Higher than 3950% | > 16.6 g/L and > 28.5 mM |  | COc1ccc(C=Cc2cc(O)cc(O[C@@H]3O[C@H](CO[C@H]4O[C@H](CO)[C@@H](O)[C@H](O)[C@H]4O)[C@@H](O)[C@H](O)[C@H]3O)c2)cc1O [[6)-O-α-D-Glcp-(1→]1-6-O^3-β-D-Glcp-(1→-4′-methoxy-3,3′,5-stilbenetriol] |  |
| Higher than 2700% | Higher than 2000% | > 8.5 g/L and > 15.0 mM |  | COc1ccc(C=Cc2cc(O)cc(O[C@@H]3O[C@H](CO[C@H]4O[C@H](CO)[C@@H](O)[C@H](O)[C@H]4O)[C@@H](O)[C@H](O)[C@H]3O)c2)cc1 [[6)-O-α-D-Glcp-(1→]1-6-O^3-β-D-Glcp-(1→-3,5-dihydroxy-4′-methoxystilbene] |  |
| Higher than 5300% | Higher than 3650% | > 65.0 g/L and > 117.6 mM |  | OC[C@H]1O[C@H](OC[C@H]2O[C@@H](Oc3cc(O)cc(/C=C/c4ccc(O)cc4)c3)[C@H](O)[C@@H](O)[C@@H]2O)[C@H](O)[C@@H](O)[C@@H]1O [[6)-O-α-D-Glcp-(1→]1-6-O^3-β-D-Glcp-(1→-resveratrol] |  |
